Patent US20120059021A1, “COMPOSITIONS AND METHODS FOR TREATING CANCER AND METHODS FOR PREDICTING A RESPONSE TO SUCH TREATMENTS” (UNIVERSITY OF WASHINGTON, priority 2008, published 2012)

Legend:
A375 = test: Flow cytometry for active (cleaved) caspase-3, A375; format: cell-based, human
Protocol: (§1) Flow cytometry for Active Caspase-3. Cells were seeded in a 6-well dish at a density to achieve 90-100% confluence at harvest. 24 hours after seeding, cells were treated with the indicated conditions for the indicated amount of time. At the time of collection, supernatants were collected and pooled with trypsinized cells. Cells were fixed with 4% paraformaldehyde and permeabilized according to vendor's protocol for Cleaved Caspase-3 (Asp175) Antibody (AlexaFluor 488 Conjugate) (catalog #9669) (Cell Signaling, Beverly Mass.). The antibody was used at a final dilution of 1:100. Flow was performed on a BD FACSCanto H, and data analysed with FlowJo 8.8.6 (Tree Star) software. Experiments were performed with biological triplicates and data are representative of at least three independent experiments. For experiments involving siRNAs, cells were reverse transfected with 20 nM siRNA in 6-well dishes in triplicate with RNAiMax according to manufacturer's protocol. 48 hours following transfection, cells were treated with the indicated conditions for 24 hours and then harvested for analysis. Cells were harvested, stained, and analyzed as described above.

A2058 = test: Flow cytometry for active (cleaved) caspase-3, A2058; format: cell-based, human; settings: 2 uM PLX4720, 24 hours, in % (unit assumed)
Protocol: as §1, with “experiments.” for “experiments. For experiments involving siRNAs, cells were reverse transfected with 20 nM siRNA in 6-well dishes in triplicate with RNAiMax according to manufacturer's protocol. 48 hours following transfection, cells were treated with the indicated conditions for 24 hours and then harvested for analysis. Cells were harvested, stained, and analyzed as described above.”
(§2) For experiments involving siRNAs, cells were reverse transfected with 20 nM siRNA in 6-well dishes in triplicate with RNAiMax according to manufacturer's protocol. 48 hours following transfection, cells were treated with the indicated conditions for 24 hours and then harvested for analysis. Cells were harvested, stained, and analyzed as described above.

SKMEL28 = test: Flow cytometry for active (cleaved) caspase-3, SKMEL28; format: cell-based, human; settings: 2 uM PLX4720, 24 hours, in % (unit assumed)
Protocol: as §1, with “experiments.” for “experiments. For experiments involving siRNAs, cells were reverse transfected with 20 nM siRNA in 6-well dishes in triplicate with RNAiMax according to manufacturer's protocol. 48 hours following transfection, cells were treated with the indicated conditions for 24 hours and then harvested for analysis. Cells were harvested, stained, and analyzed as described above.”
as §2

A375 melanoma cells = test: Isobologram analysis of cell viability (CellTiter-Glo); format: cell-based, human
Protocol: Isobologram Analysis of Cell Viability. A375 melanoma cells were seeded in 96-well plates at a concentration of 8,000 cells/well in 100 μl of growth media. 24 hours after plating, cells were treated with all combinations of 2-fold dilutions of WNT3A CM ranging from 20% to 0% and 2-fold dilutions of PLX4720 ranging from 5 μM-0 μM for 48 hours. 10 uL of CellTiter-Glo (Promega Madison, Wis.) was added to each well and total luminescence was measured on an Envision multilabel plate reader (Perkin Elmer Waltham, Mass.). Each condition within an experiment was assayed in triplicate wells and three independent experiments were performed.
Dose-effect analyses, including combination indices, dose reduction indices and median-effect analysis for FIGS. 9A-9C and FIGS. 11A-11C were performed using the method of Chou and Talay (55) via the CalcuSyn software suite (Biosoft, Cambridge UK), version 2.1.

Wnt/β-catenin signaling [1] = test: WNT3A-mediated reporter activity in primary melanocytes; format: cell-based, human; settings: HEMs
AXIN1 = test: qRT-PCR of AXIN1 mRNA in A375 cells; format: cell-based, human; settings: A375, 2 μM PLX4720, 24 hours
Source text: (§3) RNA purification and qRT-PCR analysis. RNA was purified using the RNeasy kit following the manufacturer's protocol (Qiagen; Maryland, Md.). cDNA was synthesized using RevertAid™ M-MuLV Reverse Transcriptase (Fermentas; Ontario, CAN). Light Cycler FastStart DNA Master SYBR Green1 (Roche; Mannheim, Germany) was used for real-time PCR as previously described (53). Quantitative PCR results presented in the manuscript are averages of a minimum of three biologic replicates.

[2] = test system: human epidermal melanocytes (HEM); test: qPCR of endogenous Wnt target gene AXIN2, human epidermal melanocytes (HEM); format: cell-based; settings: WNT3A CM, 2 μM PLX4720, 24 hours
Source text: as §3

Wnt/β-catenin signaling [3] = test: β-catenin activated reporter (BAR) luciferase assay in A375 melanoma cells
Source text: By way of non-limiting example, Wnt/β-catenin signaling can be measured using the BAR reporter described in detail elsewhere herein. Briefly, the BAR (β-catenin activated reporter) is a lentiviral plasmid which provides for expression of luciferase in response to Wnt/β-catenin signaling. Output can be measured with an automated luminescence plate reader.
Detailed information on the β-catenin activated reporter (BAR) has been previously described (23). Briefly, the β-catenin activated reporter (pBAR) is a lentiviral plasmid that contains 12 TCF/LEF binding sites (5′-[sequence]-3′) each separated by distinct 5 base-pair linkers upstream of a minimal promoter and the firefly luciferase open reading frame. The reporter also contains a separate PGK promoter that constitutively drives the expression of a puromycin resistance gene for mammalian cell selection. […] PLX4720 was purchased from Symansis (Australia cat# SY-PLX4720). CHIR99021 was purchased from Axon MedChem (Gronigen, Netherlands catalog #Axon1386). Z-VAD-FMK was purchased from R&D systems (Minneapolis, Minn. cat# FMKSP01).
Low throughput BAR reporter assays. Cells were plated in 96-well plates.

CCCS(=O)(=O)Nc1ccc(F)c(C(=O)c2c[nH]c3ncc(Cl)cc23)c1F [PLX4720, N-[3-[(5-Chloro-1H-pyrrolo[2,3-b]pyridin-3-yl)carbonyl]-2,4-difluorophenyl]-1-propanesulfonamide]
increase in cleaved caspase-3 (A375; A375, WNT3A CM plus 2 μM PLX4720, 24 hours): 5-20 fold | cleaved caspase-3 (A375; A375, single agent alone, 24 hours): minimal increases in cleaved caspase-3 | SYNERGISTIC APOPTOSIS WITH WNT AND PLX4720? (A375; A375, WNT3A, 2 μM PLX4720, 24 hours): YES | cleaved caspase-3-positive cells (A2058; AXIN1/2 siRNA, L CM): 12.67 ± 0.89 | cleaved caspase-3-positive cells (A2058; AXIN1/2 siRNA, W3A CM): 15.07 ± 1.6 | cleaved caspase-3-positive cells (A2058; Control siRNA, L CM): 3.39 ± 0.17 | cleaved caspase-3-positive cells (A2058; Control siRNA, W3A CM): 4.45 ± 0.41 | cleaved caspase-3-positive cells (SKMEL28; AXIN1/2 siRNA, L CM): 31.47 ± 0.13 | cleaved caspase-3-positive cells (SKMEL28; AXIN1/2 siRNA, W3A CM): 33.93 ± 4.1 | cleaved caspase-3-positive cells (SKMEL28; Control siRNA, L CM): 6.02 ± 0.63 | cleaved caspase-3-positive cells (SKMEL28; Control siRNA, W3A CM): 8.64 ± 1.9 | drug reduction indices (A375 melanoma cells; combination of WNT3A CM and PLX4720, at 50% growth inhibition): 8.1 | combination indices (inhibition of cell growth) (A375 melanoma cells; combination of WNT3A and PLX4720, 48 hours): less than 1 | Wnt/β-catenin signaling (Wnt/β-catenin signaling [1]): no detectable effect | AXIN1 gene expression (mRNA) (AXIN1): no transcriptional regulation of AXIN1 gene expression | AXIN2 transcript levels [2]: did not exhibit any increase in AXIN2 transcript levels | activation of BAR (Wnt/β-catenin signaling [3]; A375, PLX4720 on its own): does not lead to any measurable activation of BAR on its own | Wnt/β-catenin signaling (BAR activity) (Wnt/β-catenin signaling [3]; A375, in the presence of WNT3A): enhanced Wnt/β-catenin signaling in a dose-dependent manner | Combination indices (BAR activity) (Wnt/β-catenin signaling [3]; WNT3A and PLX4720, fixed ratio doses, particularly at higher levels of BAR activity): less than 1
